Measurements as given in PMC8776337, “Peptides Derived from Vascular Endothelial Growth Factor B Show Potent Binding to Neuropilin‐1” (Chembiochem, 2021).
“And” between values parts separate entries of the source, which are not always exact repeats. Equal values may be shown once. Read-outs that look alike come from different tables or passages of the source. Positions of bridges follow the written chain, without caps; N, C: chain ends. Residues, ends and D or L forms follow the SMILES beside them. No end group written: not given here. *: point of attachment. Palmitoyl = CCCCCCCCCCCCCCCC(=O)*; Hpt = not defined here

T1: NRP1‐b1 (Homo sapiens, UniProt O14786)
T1 construct: the immobilized b1 domain of NRP1 (NRP1‐b1); poly-histidine (TEV-cleavable) (cleaved yes); made in house; host or cells: E. coli Rosetta (DE3)
T1 sequence (O14786 275-424 limits assumed): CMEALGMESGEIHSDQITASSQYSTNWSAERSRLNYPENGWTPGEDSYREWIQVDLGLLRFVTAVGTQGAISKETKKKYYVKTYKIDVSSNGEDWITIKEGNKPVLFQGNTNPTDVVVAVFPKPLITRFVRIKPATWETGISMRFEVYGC

T2: b1 domain of neuropilin‐1 (NRP1‐b1) (human, UniProt O14786 273-427)
T2 construct: neuropilin-1, human, b1 domain; also called NRP1‐b1 domain; NRP1 b1 domain; source: E. coli Rosetta (DE3), purified (HisTrap, TEV cleavage, Superdex 75, SP FF ion exchange)
T2 sequence: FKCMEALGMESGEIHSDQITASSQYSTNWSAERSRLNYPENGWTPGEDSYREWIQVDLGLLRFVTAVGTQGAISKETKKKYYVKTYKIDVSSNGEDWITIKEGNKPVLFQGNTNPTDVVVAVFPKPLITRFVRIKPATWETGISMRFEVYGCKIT

B1: MGC0122 (peptide)
peptide: Hpt-DRAATPHHRPQPR
modifications: reading uncertain; also: printed as Hpt‐DRAATPHHRPQPR
notes: VEGF-B186, human, the C-terminal stretch of the proteolytically processed form, ending in arginine; Only the C-terminal QPR is ordered in the crystal structure; also called VEGF‐B derived peptide MGC0122; source: synthetic peptide; bought: Peptide Protein Research (PeptideSynthetics), >95 % purity by HPLC
B2: MGC0123 (peptide)
chain: {6‑heptynoyl}-RCRRRSFLRCQGRGLELNPDTCRCRKLRR
modifications: disulfide (positions not given here); also: cyclised by disulphide, Cys pairing not given here
B3: MGC0124 (peptide)
chain: SCKNTDSRCKARQLELNERTCRCDKPRR
modifications: disulfide (positions not given here); not fully specified (N-terminus); also: cyclised by disulphide, Cys pairing not given here

Tests used:
NRP1‐b1 = target: T1, NRP1‐b1; assay: SPR binding of peptides to immobilised NRP1-b1; conditions: for Receptor occupancy: immobilised NRP1-b1
Excerpt: We then designed four additional peptides with added lipid chains (Figures 3 and 4). We investigated the effect of lipidation on the N‐terminus (MGC0171 and MGC0174) and on the side chain of a lysine in close proximity to the C‐terminus (MGC0172 and MGC0173) as shown (Figure 5). For the SPR analysis of the lipidated peptides we fitted data to a two‐state reaction model to account for the nonspecific binding of the palmitoyl side chains. Since the model assumes two binding events it provides two association (k a) and dissociation (k d) rates, and the overall equilibrium dissociation constant is calculated using the equation: KD=KD1(1+KD2), in which KD1 and KD2 are obtained as […]. The inverse of the dissociation rate corresponds to the residence time. […] The lipidated peptides were also tested for inhibition of VEGF‐A165 binding to NRP1 in a cell‐based assay (Figure 8).
Surface plasmon resonance: SPR measurements were performed using either Biacore T200 or Biacore 4000 at a constant temperature of 25 °C. All sensor chips, stock buffers, and immobilisation reagents were purchased from GE Healthcare/Cytvia and were prepared according to the manufacturer's instructions.
Chip preparation: PBS containing 0.05 % surfactant P20 was used as the running buffer during immobilisation. Proteins were immobilised onto a CM5 chip using random amine coupling following a standard procedure using the conditions specified in Table 2. A flow cell upstream of the treated flow cell was used as a reference which allowed removal of non‐specific binding to the chip.
Kinetic measurements of peptides: Peptides were injected over immobilized NRP1‐b1 for 60 s, followed by 120 or 180 s dissociation. The surface was regenerated with 1 M NaCl between injections. The SPR response curves were fit to a binding model to obtain association (ka ) and dissociation (kd ) rates which were then converted into equilibrium dissociation constant (KD ) and residence time. For a 1 : 1 binding model […] and for a two‐state binding model KD=K1(1+K2). Residence time was calculated as 1/kd .

[1] = target: T3, bt‐VEGF‐A165 binding to NRP1 in HUVEC cells (Homo sapiens, UniProt O14786); assay: Cell based binding assay, inhibition of bt-VEGF-A165 binding to NRP1; conditions: for IC50: 4 °C, 2 h, streptavidin-horseradish peroxidase detection; for HS (of the inhibition curve of bt‐VEGF‐A165 binding to NRP1): HUVEC cells
T3 construct: expressed in transfected cells
Protocol: A) N‐terminal palmitoyl VEGF‐B167 derived peptide MGC0174. B) Lysine palmitoyl peptide MGC0173. C) N‐terminal palmitoyl VEGF‐A165 derived peptide MGC0171. D) Lysine VEGF‐A165 palmitoyl peptide MGC0172.
Cell based binding assay for bt‐VEGF binding to NRP1‐b1: A flat‐bottomed 96 well plate was coated with 100 μL 10 μg/mL Poly‐D‐lysine (110 μL in 10890 μL PBS) and incubated for 1 hour at R.T. DU145 cells were seeded at a concentration of 20,000 DU145 cells/well in DMEM with 10 % FBS and incubated for 4 hours. Cells were then infected with 0.3 μL per well of adenovirus expressing NRP1 (stock at 1×1012 vp/mL) and incubated for 40 hours. The media was removed followed by washing cells twice in 200 μL of PBS per well. The plate was placed on ice and 50 μL of binding medium was added per well for total binding. Next, 50 μL of 100‐fold excess (100×btVEGF‐A165) of unlabelled‐VEGF (diluted in binding medium) was added per well for non‐specific binding. Peptides (50 μL) at the indicated concentrations were diluted in binding medium and added to specified wells. bt‐VEGF (50 μL of 4 nM; diluted in binding medium) was added per well for both total and non‐specific binding and samples. The plate was incubated at 4 °C for 2 hours. The plate was then placed on ice and the medium was removed followed by gently washing the cells 3 times in 200 μL of PBS per well.
Streptavidin‐horseradish peroxidase (100 μL; dilute to the working concentration specified on the vial label using PBS+1 % BSA=1 : 200) was added to each well. The plate was sealed and incubated for 30 minutes at room temperature. Three more washes with 200 μL PBS were done. Then, 100 μL of substrate solution was added to each well (protected from light). Colour Reagent A and B were mixed together in equal volumes within 15 minutes of use. The plate was sealed and incubated for 20 minutes at room temperature. Stop solution (50 μL) was added to each well ensuring even mixing. The plate was read using Tecan Genios plate reader using a 450 nm cut‐off filter and also with a reference 595 nm cut‐off filter. Nonspecific binding was determined in the absence of NP‐1 coated on the microplate.

[2] = Peptide stability in mouse plasma; format: in vitro ADME; conditions: mouse plasma pH 7.4, 37 °C, LC-MS/MS, triplicate (n=1); for Stability in mouse plasma (in words): 10 μM, 0.24 % DMSO, 0, 5, 15, 30, 60, 120 min
Protocol: Figure 9 Stability of VEGF‐B167 lipidated peptides in mouse plasma determined by MSMS analysis. The stability of the peptides is shown relative to the control eucatropine. Samples were analysed in triplicate (n=1).
Peptide stability in mouse plasma: Mouse plasma stability tests were performed by Cyprotex. In brief, peptides were incubated with mouse plasma (adjusted for pH 7.4, 37 °C) to a final concentration of 10 μM and incubation volume of 500 μL (0.24 % DMSO). After the incubation period (0, 5, 15, 30, 60, and 120 min), the reactions were stopped by transferring 50 μL of incubate to 150 μL acetonitrile containing internal standard. Plasma proteins were precipitated out by centrifuging at 3,000 rpm for 45 min at 4 °C. The supernatant was diluted 1 : 1 with water and analysed by LC‐MS/MS.

[3] = target: T2, b1 domain of neuropilin‐1 (NRP1‐b1); assay: SPR; NRP1-b1 immobilised on a CM5 chip by random amine coupling; peptides injected for 60 s, 120 or 180 s dissociation; 25 °C; regeneration with 1 M NaCl; kinetic fit, 1:1 model (MGC0122, MGC0123, MGC0124) or two-state model (MGC0171, MGC0172, MGC0173, MGC0174); conditions: both partners purified
[4] = SPR, immobilised NRP1-b1, 25 °C, two-state model, lipidated peptides, read-out: Second residence time calculated from two‐state model (converted)
[5] = read-out: Residence time (1/kd)
[6] = IC50, cell‐based activity (HUVECs), inhibition of bt‐VEGF‐A165 binding to NRP1, bt-VEGF-A165 4 nM

T3 sequence (O14786 22-923): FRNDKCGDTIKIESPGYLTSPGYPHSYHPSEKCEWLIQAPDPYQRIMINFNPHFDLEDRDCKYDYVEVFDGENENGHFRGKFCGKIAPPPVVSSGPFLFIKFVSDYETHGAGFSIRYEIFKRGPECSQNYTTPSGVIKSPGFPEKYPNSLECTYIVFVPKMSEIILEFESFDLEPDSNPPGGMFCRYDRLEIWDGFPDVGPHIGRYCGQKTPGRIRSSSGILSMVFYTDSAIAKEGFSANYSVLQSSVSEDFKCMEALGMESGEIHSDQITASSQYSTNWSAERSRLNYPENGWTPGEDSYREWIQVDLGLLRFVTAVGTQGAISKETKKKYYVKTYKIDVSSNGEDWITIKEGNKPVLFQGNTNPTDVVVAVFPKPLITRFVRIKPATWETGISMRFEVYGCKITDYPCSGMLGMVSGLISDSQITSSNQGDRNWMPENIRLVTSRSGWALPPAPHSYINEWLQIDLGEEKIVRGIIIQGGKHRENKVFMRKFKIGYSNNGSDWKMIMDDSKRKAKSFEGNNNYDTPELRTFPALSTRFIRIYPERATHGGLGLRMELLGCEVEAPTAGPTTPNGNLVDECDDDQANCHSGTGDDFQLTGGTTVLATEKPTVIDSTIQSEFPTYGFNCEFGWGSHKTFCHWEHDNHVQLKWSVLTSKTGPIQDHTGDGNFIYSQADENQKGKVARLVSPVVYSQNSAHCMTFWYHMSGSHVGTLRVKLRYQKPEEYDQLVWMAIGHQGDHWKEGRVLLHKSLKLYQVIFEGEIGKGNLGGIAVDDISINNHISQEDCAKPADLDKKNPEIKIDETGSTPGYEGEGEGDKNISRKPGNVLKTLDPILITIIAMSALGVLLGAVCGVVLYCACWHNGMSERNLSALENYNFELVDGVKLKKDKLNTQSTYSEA

| Molecule | residence time (NRP1‐b1; [4]) [min] | HS (of the inhibition curve of bt‐VEGF‐A165 binding to NRP1) ([1]; bt-VEGF-A165 4 nM) | Stability in mouse plasma (in words) [2] | Kd [3] [nM] | other results |
| --- | --- | --- | --- | --- | --- |
| CCCCCCCCCCCCCCCC(=O)NCCCC[C@H](NC(=O)[C@H](CCCNC(=N)N)NC(=O)[C@@H]1CSSC[C@@H]2NC(=O)[C@H](CCCNC(=N)N)NC(=O)[C@H](CC(C)C)NC(=O)[C@H](Cc3ccccc3)NC(=O)[C@H](CO)NC(=O)[C@H](CCCNC(=N)N)NC(=O)[C@H](CCCNC(=N)N)NC(=O)[C@H](CCCNC(=N)N)NC(=O)[C@@H](NC(=O)[C@H](CCCNC(=N)N)NC(C)=O)CSSC[C@H](NC(=O)[C@H]([C@@H](C)O)NC(=O)[C@H](CC(=O)O)NC(=O)[C@@H]3CCCN3C(=O)[C@H](CC(N)=O)NC(=O)[C@H](CC(C)C)NC(=O)[C@H](CCC(=O)O)NC(=O)[C@H](CC(C)C)NC(=O)CNC(=O)[C@H](CCCNC(=N)N)NC(=O)CNC(=O)[C@H](CCC(N)=O)NC2=O)C(=O)N[C@@H](CCCNC(=N)N)C(=O)N1)C(=O)N[C@@H](CC(C)C)C(=O)N[C@@H](CCCNC(=N)N)C(=O)N[C@@H](CCCNC(=N)N)C(=O)O [MGC0173] (Ac-RCRRRSFLRCQGRGLELNPDTCRCRK(Palmitoyl)LRR-OH; disulfide 2-22, 10-24) | 2.69 | 1.8 | maintained much better levels throughout the course of the experiment |  | Kd (NRP1‐b1): 130 ± 30 nM; Receptor occupancy (NRP1‐b1; SPR): 10±1%; residence time (NRP1‐b1; [5]): 0.0767 min; IC50 [1, 6]: 2000 nM; half-life at 10 μM ([2]; 0.24 % DMSO, 0-120 min): 51 min |
| CCCCCCCCCCCCCCCC(=O)N[C@@H](CCCNC(=N)N)C(=O)N[C@H]1CSSC[C@@H]2NC(=O)[C@H]([C@@H](C)O)NC(=O)[C@H](CC(=O)O)NC(=O)[C@@H]3CCCN3C(=O)[C@H](CC(N)=O)NC(=O)[C@H](CC(C)C)NC(=O)[C@H](CCC(=O)O)NC(=O)[C@H](CC(C)C)NC(=O)CNC(=O)[C@H](CCCNC(=N)N)NC(=O)CNC(=O)[C@H](CCC(N)=O)NC(=O)[C@H](CSSC[C@@H](C(=O)N[C@@H](CCCNC(=N)N)C(=O)N[C@@H](CCCCN)C(=O)N[C@@H](CC(C)C)C(=O)N[C@@H](CCCNC(=N)N)C(=O)N[C@@H](CCCNC(=N)N)C(=O)O)NC(=O)[C@H](CCCNC(=N)N)NC2=O)NC(=O)[C@H](CCCNC(=N)N)NC(=O)[C@H](CC(C)C)NC(=O)[C@H](Cc2ccccc2)NC(=O)[C@H](CO)NC(=O)[C@H](CCCNC(=N)N)NC(=O)[C@H](CCCNC(=N)N)NC(=O)[C@H](CCCNC(=N)N)NC1=O [MGC0174] (Palmitoyl-RCRRRSFLRCQGRGLELNPDTCRCRKLRR-OH; disulfide 2-22, 10-24) | 4.46 | 1.9 | quickly degraded to low levels after 15 min |  | Kd (NRP1‐b1): 330 ± 50 nM; Receptor occupancy (NRP1‐b1; SPR): 47±3%; residence time (NRP1‐b1; [5]): 0.248 min; IC50 [1, 6]: 319 nM and 300 nM |
| CC1CC(OC(=O)C(O)c2ccccc2)CC(C)(C)N1C (stereo not drawn) [eucatropine, reference compound] |  |  | degraded within literature parameters |  |  |
| CCCCCCCCCCCCCCCC(=O)N[C@@H](CO)C(=O)N[C@H]1CSSC[C@@H]2NC(=O)[C@H]([C@@H](C)O)NC(=O)[C@H](CCCNC(=N)N)NC(=O)[C@H](CCC(=O)O)NC(=O)[C@H](CC(N)=O)NC(=O)[C@H](CC(C)C)NC(=O)[C@H](CCC(=O)O)NC(=O)[C@H](CC(C)C)NC(=O)[C@H](CCC(N)=O)NC(=O)[C@H](CCCNC(=N)N)NC(=O)[C@H](C)NC(=O)[C@H](CCCCN)NC(=O)[C@H](CSSC[C@@H](C(=O)N[C@@H](CC(=O)O)C(=O)N[C@@H](CCCCN)C(=O)N3CCC[C@H]3C(=O)N[C@@H](CCCNC(=N)N)C(=O)N[C@@H](CCCNC(=N)N)C(=O)O)NC(=O)[C@H](CCCNC(=N)N)NC2=O)NC(=O)[C@H](CCCNC(=N)N)NC(=O)[C@H](CO)NC(=O)[C@H](CC(=O)O)NC(=O)[C@H]([C@@H](C)O)NC(=O)[C@H](CC(N)=O)NC(=O)[C@H](CCCCN)NC1=O [MGC0171] (Palmitoyl-SCKNTDSRCKARQLELNERTCRCDKPRR-OH; disulfide 2-21, 9-23) | 1.58 | 1.7 |  |  | residence time (NRP1‐b1; SPR, immobilised NRP1-b1, 25 °C, 1:1 model, or first residence time of the two-state model, read-out: Residence time (1/kd) (converted)): 0.0883 min; Kd (NRP1‐b1; SPR, peptide injected 60 s over NRP1-b1 immobilised on CM5 chip, 25 °C, 1:1 model for MGC0122/0123/0124, two-state model for lipidated peptides, read-out: KD, SPR binding to NRP1‐b1): 3320 ± 160 nM; IC50 ([1]; bt-VEGF-A165 4 nM, read-out: IC50, cell‐based activity (HUVECs), inhibition of bt‐VEGF‐A165 binding to NRP1): 1700 nM |
| B1 |  |  |  | 9550 ± 170 |  |
| B2 |  |  |  | 390 ± 90 |  |
| B3 |  |  |  | 3330 ± 100 |  |
